Measured values: US10801050B2, “Microorganism modified for the assimilation of levulinic acid” (priority 2015, dated 2020)

Assay: In vitro validation of enzymatic activities: LC-MS/MS detection of levulinyl-CoA after incubation of purified proteins with substrates
Assay type: biochemical, Ralstonia eutropha
Conditions: purified proteins incubated with their respective substrates; reverse phase UPLC, negative ion MS/MS
Description: To validate the activity of the candidates identified in Example 2 above with regard to reactions A1, A2 and B, their corresponding genes were cloned into the expression plasmid pPAL7 (Biorad®). In the case of QOKBZ9_CUPNH and Q0KC00_CUPNH, the corresponding genes were cloned in operon into the pPAL7. The resulting plasmids were transformed into E. coli BL21(DE3) strain.
The resulting strains were cultivated as described in patent application WO 2010/076324, incorporated herein by reference. Cells were collected by centrifugation and resuspended in potassium phosphate buffer 100 mM pH 7.6. Proteins were extracted by sonication and crude extracts were clarified by centrifugation. Recombinant protein purification was carried out using Biorad® PROfinity EXact cartridges according to the manufacturer's instructions. […]
Levulinyl-CoA was detected by reverse phase UPLC coupled to negative ion MS/MS, by searching for the transition from mass 864 (mass of levulinyl-CoA minus 1) to 408 (ion corresponding to the adenine part according to the protocol described by Zirrolli et al. 1994) as shown on FIG. 3.

Q0KBZ9_CUPNH/Q0KC00_CUPNH: the 2 subunits of succinyl-CoA:3-ketoacid-coenzyme A transferase (EC 2.8.3.5), candidate for reaction A2
detection of levulinyl-CoA in the reaction mixture (transition 864 to 408): presence of levulinyl-CoA
